Reference: publication PMC6270263, “Factors Influencing the Antifolate Activity of Synthetic Tea-Derived Catechins” (Molecules, 2013)

Test system: SK-MEL-28 melanoma cells
Experiment: Apoptosis assay (cell death detection ELISA) with or without site markers
Type: cell-based, human
Details: SK-MEL-28, 10 µM, alone
Description: Serum is commonly used as a supplement in cell culture media. It supports cell growth and product formation by providing a broad spectrum of macromolecules, attachment factors, nutrients, and hormone and growth factors. The most commonly used animal serum supplement is foetal bovine serum, FBS (alternatively called foetal calf serum—FCS). Because BSA is a major component of FBS, the in vitro activity of catechins on tumour cells might be affected by their interaction with BSA. The effect of albumin binding on the biological activity of polyphenols is unclear. Does the bound ligand have some biological activity or does the polyphenol have to be in the free form to be active? To answer this question and to determine whether BSA-catechin interactions increase or decrease catechin anti-tumour activity, the proapoptotic activity of TMCG on SK-MEL-28 melanoma cells was probed in the presence of warfarin or ibuprofen [Figure 5(b)]. […] Because the binding of catechins to BSA seems to control drug availability, the lower affinity of TMCG and TMECG for serum albumins, with respect to natural tea catechins, might contribute to the high in vivo anti-tumour activity of these methylated synthetic catechins. […]
The human melanoma cell line SK-MEL-28 was obtained from American Type Culture Collection (ATCC, Manassas, VA, USA) and was maintained in Eagles’s Minimum Essential Medium (EMEM) supplemented with 10% (v/v) FBS and antibiotics at 37 °C in a humidified atmosphere containing 7.5% CO2. Cell viability was evaluated using the MTT cell proliferation assay. Cells were evaluated for apoptosis using a cell death detection ELISA (Cell Death Detection ELISAPLUS, Roche Diagnostics, Barcelona, Spain). […] The amount of nucleosomes is photometrically quantified at 405 nm by the peroxidase activity retained in the immunocomplexes. Apoptosis was defined as the specific enrichment of mono- and oligonucleosomes in the cytoplasm and was calculated by dividing the absorbance of treated samples with the absorbance of untreated samples after correcting for the number of cells. […]

## CC(C)Cc1ccc(C(C)C(=O)O)cc1 (centres unmarked) [ibuprofen, reference compound]
  Induction of apoptosis, compound alone: did not induce apoptosis

## CC(=O)CC(c1ccccc1)c1c(O)c2ccccc2oc1=O (centres unmarked) [warfarin, reference compound]
  Induction of apoptosis, compound alone: did not induce apoptosis
